Results as given in article PMC10162847 (Phytomedicine, 2023).
Like-named read-outs stand apart in the source and are kept apart here.

Legend:
in vitro = conditions: human
SARS-CoV-2 = type: cell-based; conditions: VeroE6 cells, concentration-dependent
HCoV-229E = assay: microbe, parasite or virus in culture; type: cell-based; conditions: Human coronavirus 229E
Vero E6 cells = conditions: MTT, 72 h
[1] = test system: dimethylbenzene-induced auricular edema
[2] = test system: LPS-induced acute lung injury; type: in vivo, C57BL/6 mice; conditions: ALI mice
[3] = KM mice, oral 6000 mg/kg (2000 mg/kg 3 times within 24 h), 7 days observation
[4] = test system: carrageenan-induced paw edema; assay: Carrageenan-induced paw edema in rats; type: in vivo, Sprague-Dawley (SD) rats; conditions: oral 50, 100, 200 mg/kg for 7 days, 2nd-5th h after carrageenan injection
[5] = test system: SARS-CoV-2 pseudo typed lentivirus; type: cell-based; conditions: fluorescence signal, 0-300 μM, pre-incubation 0.5 h
[6] = test system: RIPK1/NF-κB pathway in THP1 macrophages; type: cell-based
DNFB-induced ear edema = conditions: DTH model
[7] = biological target: interactions between the RBD^WT and ACE2 protein (Severe acute respiratory syndrome coronavirus 2, UniProt P0DTC2); type: binding; conditions: ELISA
[8] = Huh-7, read-out: EC50, HCoV-229E replication, CPE assay
[9] = Huh-7, read-out: EC50, HCoV-229E replication, MTT assay
[10] = oral pre-treatment 200, 300, 400 mg/kg
[11] = western blotting, THP1 macrophages

CCC(CC)COC(=O)[C@H](C)N[P@](=O)(OC[C@H]1O[C@@](C#N)(c2ccc3c(N)ncnn23)[C@H](O)[C@@H]1O)Oc1ccccc1 [remdesivir, reference compound]
CC50 (in vitro): 108 µM | SARS-CoV-2 proliferation (SARS-CoV-2): inhibited | EC50 (HCoV-229E; [8]): 0.0562 µM | EC50 (HCoV-229E; [9]): 0.0583 µM

O=c1c(O)c(-c2cc(O)c(O)c(O)c2)oc2cc(O)cc(O)c12 [myricetin, 3,5,7-trihydroxy-2-(3,4,5-tri hydroxyphenyl)-4-benzopyrone]
CC50 (Vero E6 cells): 248 µM | immune organ toxicity ([1]; dimethylbenzene-induced auricular edema model): without immune organ toxicity | edema formation in the dermis ([1]; dimethylbenzene-induced auricular edema, 7 days pre-treatment): significantly suppressed | mRNA levels of TNFα, IL-6 and NF-κBp65 in the lung tissues [2]: significantly downregulated | alveolar inflammation [2, 10]: decreased the alveolar inflammation | lung edema [2, 10]: alleviated lung edema | acute toxicity, exposure-related clinical symptoms [3]: no exposure-related clinical signs | inflammatory activity (paw edema) [4]: significantly reduce | binding of the SARS-CoV-2 pseudo typed lentivirus to HEK293-hACE2-mCherry cells [5]: repressed | RIPK1 expression levels and mRNA levels of NF-κBp65, RIPK3, RIPK1, MLKL, FADD, Caspase8 and JNK ([6]; LPS-induced THP1 macrophages, 100, 200, 400 μM): significantly reduced | RIPK1, phosphorylation of NF-κBp65 and RIPK1 induced by LPS stimulation [6, 11]: significantly inhibited | abundance of the NF-κBp65 protein among the total proteins [6, 11]: unaltered | organ damage (DNFB-induced ear edema; BALB/c mice): without any organ damage | mouse ear thickness (DNFB-induced ear edema; oral 50, 100, 200 mg/kg, 20, 40, 60 and 80 min after modeling): decreased | EC50 (HCoV-229E; [8]): 53.5 µM | EC50 (HCoV-229E; [9]): 61.5 µM | interactions between the RBD^WT and ACE2 protein [7]: significantly inhibited
